Results on one compound are retold here after patent US10278968B2, “Combination therapy with glutaminase inhibitors” (Calithera Biosciences, Inc., priority 2016, dated 2019).

The test system of this test is P493-6 (myc "on") cells. As to the kind of experiment: Cell Proliferation Assay. It is filed as cell-based. Conditions: read-out: Cell prolif P493 72 h IC50; P493-6 cells, 72 h incubation. The procedure: P493-6 (myc “on”) cells were maintained in growth media (RPMI-1640, 10% FBS, 2 mM glutamine, 100 units/ml Penicillin and 100 μg/ml streptomycin) at 37° C. with 5% CO2. For compound assay, P493-6 cells were plated in 96-well V-bottom plates on the day of compound addition in 50 μl of growth media at a cell density of 200,000 cells/ml (10,000 cells/well). Compounds were serially diluted in 100% DMSO at 200-times the final concentration. Compounds were diluted 100-fold into growth media and then 50 μl of this mixture was added to cell plates making the final concentration of DMSO 0.5%. Cells were incubated with compound for 72 hrs at 37° C. with 5% CO2 and analyzed for antiproliferative effects either by Cell Titer Glo (Promega) or FACS analysis using the Viacount (Millipore) kit on the Guava instrument.

SMILES strings stand for the structures.

Usually IC50 stands for the concentration needed to halve the response being measured. `COc1ccc(OC(F)(F)F)cc1CC(=O)Nc1ccc(CCCCc2nnc(NC(=O)Cc3ccccn3)s2)nn1` [Cmpd 717]: the IC50 worked out at 0.019 µM.
